Experimental data published in patent US5476782A, “DNA encoding a human 5-HT1E receptor and uses thereof” (Synaptic Pharmaceutical Corporation, priority 1995, dated 1995).
Where two headings read alike, the source gives them in different places.

Legend:
[1] = molecular target: T1, human 5-HT1E receptor (Homo sapiens, UniProt P28566); assay: [3H]5-HT displacement binding, membranes of Ltk- cells transfected with cloned 5-HT1E receptor; parameters: The entire coding region of clone hp75d was cloned into the eukaryotic expression vector pcEXV-3; expressed in transfected cells; host or cells: Ltk- mouse fibroblast cells (line 5-HT1E-7, ATCC CRL 10913, plasmid pcEXV-hp75d); settings: for affinity (in words): displacement of [3H]5-HT specific binding; for decrease of affinity relative to serotonin: substitution or removal of the 5-hydroxy group
T1 sequence (P28566 whole entry): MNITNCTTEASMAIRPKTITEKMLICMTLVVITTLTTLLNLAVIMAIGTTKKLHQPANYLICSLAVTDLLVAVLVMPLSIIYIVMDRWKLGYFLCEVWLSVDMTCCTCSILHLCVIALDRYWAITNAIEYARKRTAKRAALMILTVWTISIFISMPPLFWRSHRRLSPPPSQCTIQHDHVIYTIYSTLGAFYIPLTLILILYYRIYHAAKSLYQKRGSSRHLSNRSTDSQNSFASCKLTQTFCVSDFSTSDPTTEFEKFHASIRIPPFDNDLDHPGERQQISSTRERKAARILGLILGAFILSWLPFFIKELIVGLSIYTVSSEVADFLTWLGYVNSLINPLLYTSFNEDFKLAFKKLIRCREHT
Method: Membranes were prepared from transfected Ltk^- cells which were grown to 100% confluency. The cells were washed twice with phosphate-buffered saline, scraped from the culture dishes into 5 ml of ice-cold phosphate-buffered saline, and centrifuged at 200×g for 5 min at 4° C. The pellet was resuspended in 2.5 ml of ice-cold Tris buffer (20 mM Tris -HCl, pH 7.4 at 23° C., 5 mM EDTA) and homogenized by a Wheaton tissue grinder. The lysate was subsequently centrifuged at 200×g for 5 min at 4° C. to pellet large fragments which were discarded. The supernatant was collected and centrifuged at 40,000× g for 20 min at 4° C. The pellet resulting from this centrifugation was washed once in ice-cold Tris buffer and finally resuspended in a final buffer containing 50 mM Tris-HCl and 0.5 mM EDTA, pH 7.4 at 23° C. Membrane preparations were kept on ice and utilized within two hours for the radioligand binding assays.
The binding profile of drugs in competition experiments was accomplished using 10-12 concentrations of compound. Incubation times were 30 min for both saturation and displacement studies based upon initial investigations which determined equilibrium binding conditions. […] Binding was initiated by the addition of 50 μl membrane homogenates (10-20 μg). The reaction was terminated by rapid filtration through presoaked (0.5% polyethyleneimine) filters using 48R Cell Brandel Harvester (Gaithersburg, Md.). Subsequently, filters were washed for 5 seconds with ice cold buffer (50 mM Tris HCL, pH 7.4 at 4° C.), dried and placed into vials containing 2.5 ml of Readi-Safe (Beckman, Fullerton, Calif.) and radioactivity was measured using a Beckman LS 5000TA liquid scintillation counter. […] Binding data was analyzed by computer-assisted nonlinear regression analysis (Accufit and Accucomp, Lundon Software, Chagrin Falls, Ohio). […] All experiments were performed in triplicate.

[2] = test system: 5-HT1E binding site; settings: native site, human cortical tissue; cited from earlier work
[3] = molecular target: T1, human 5-HT1E receptor; settings: forskolin-stimulated cAMP
Method: Transfected Y1 cells (expression level=688 fmol/mg of protein) were incubated in DMEM, 5 mM theophylline, 10 mM Hepes (4-[2-Hydroxyethyl]-1-piperazineethanesulfonic acid), 10 μM pargyline, for 20 minutes at 37° C., 5% CO2. […] Subsequently, the cells were incubated for an additional 10 minutes at 37° C., 5% CO2. The media was aspirated and the reaction terminated by the addition of 100 mM HCl. The plates were stored at 4° C. for 15 minutes and centrifuged for 5 minutes (500×g at 4° C.) to pellet cellular debris. Aliquots of the supernatant fraction were then stored at -20° C. prior to assessment of cAMP formation by radioimmunoassay (cAMP Radioimmunoassay kit, Advanced Magnetics, Cambridge, Mass.).

[4] = molecular target: human 5-HT1E receptor; assay: Inhibition of [3H]5-HT specific binding by Gpp(NH)p (G-protein coupling); settings: inhibition of specific binding of [3H]5-HT
[5] = displacement of 4.5-5.5 nM [3H]5-HT, 37° C., 30 min, Table 1, read-out: Ki

SMILES	Ki [1, 5] [nM]	affinity (in words) [1]	further results
c1ccc2c(N3CCNCC3)cccc2c1 [1-Napthylpiperazine]	207 ± 69	–	Ki ([1]; read-out: Ki values): 207 nM
Cc1[nH]c2ccc(O)cc2c1CCN [2-Methyl-5-HT]	817 ± 203	–	–
NCCc1c[nH]c2ccc(C(N)=O)cc12 [5-CT, 5-carboxyamidotryptamine]	7880 ± 284	low affinity	decrease of affinity relative to serotonin [1]: 300 fold; affinity (in words) [2]: low affinity
NCCc1c[nH]c2ccc(O)cc12 [5-HT, 5-hydroxytryptamine]	–	highest affinity	maximum inhibition of cAMP production [3]: 32%
COc1ccc2[nH]cc(CCN)c2c1 [5-Methoxytryptamine]	3150 ± 1040	–	decrease of affinity relative to serotonin [1]: 300 fold
CCCN(CCC)C1CCc2cccc(O)c2C1 (centres unmarked) [8-OH-DPAT]	3330 ± 310	very poor affinity	–
COc1cc(CC(C)N)c(OC)cc1I (centres unmarked) [DOI]	2970 ± 592	very poor affinity	–
CCCN(CCC)CCc1c[nH]c2ccc(C(N)=O)cc12 [DP-5-CT]	–	–	Ki [1]: > 10000 nM
C[C@@H](CO)NC(=O)[C@@H]1C=C2c3cccc4[nH]cc(c34)C[C@H]2N(C)C1 [Ergonovine]	–	–	Ki [1]: 87.7 ± 7.6 nM
CN1C[C@H](C(=O)N[C@]2(C)O[C@@]3(O)[C@@H]4CCCN4C(=O)[C@H](Cc4ccccc4)N3C2=O)C=C2c3cccc4[nH]cc(c34)C[C@H]21 [Ergotamine]	599 ± 39	–	affinity (in words) [2]: low affinity
Nc1nc2c(ncn2[C@@H]2O[C@H](COP(=O)(O)OP(=O)(O)NP(=O)(O)O)[C@@H](O)[C@H]2O)c(=O)[nH]1 [Gpp(NH)p]	–	–	IC50 [4]: 1880 ± 556 nM; Imax [4]: 26.4±5.6%
O=C(c1ccc(F)cc1)C1CCN(CCn2c(=O)[nH]c3ccccc3c2=O)CC1 [Ketanserin]	–	very poor affinity	–
Nc1ccc(CCN2CCN(c3cccc(C(F)(F)F)c3)CC2)cc1 [LY-165163 (PAPP)]	–	–	Ki [1]: > 10000 nM
CN1C[C@H](CO)C=C2c3cccc4[nH]cc(c34)C[C@H]21 [Lysergol]	42.8 ± 5.3	–	–
CSc1ccc2c(c1)C(N1CCN(C)CC1)Cc1ccccc1S2 (centres unmarked) [Methiothepin]	194 ± 4	–	Ki ([1]; read-out: Ki values): 194 nM
CC[C@@H](CO)NC(=O)[C@@H]1C=C2c3cccc4[nH]cc(c34)C[C@H]2N(C)C1 [Methylergonovine]	89.4 ± 4.2	–	–
CC[C@@H](CO)NC(=O)[C@@H]1C=C2c3cccc4c3c(cn4C)C[C@H]2N(C)C1 [Methysergide]	228 ± 16	–	–
Cc1cc(C(C)(C)C)c(O)c(C)c1CC1=NCCN1 [Oxymetazoline]	419 ± 49	–	–
CC(C)NCC(O)COc1cccc2[nH]ccc12 (centres unmarked) [Pindolol]	–	very poor affinity	–
COC(=O)[C@H]1[C@H]2C[C@H]3c4[nH]c5ccccc5c4CCN3C[C@H]2CC[C@@H]1O [Rauwolscine]	–	–	Ki [1]: 3430 ± 102 nM
O=C(CCCN1CCC2(CC1)C(=O)NCN2c1ccccc1)c1ccc(F)cc1 [Spiperone]	5050 ± 689	very poor affinity	–
FC(F)(F)c1cccc(N2CCNCC2)c1 [TFMPP]	6290 ± 259	–	–
NCCc1c[nH]c2ccccc12 [Tryptamine]	2560 ± 827	–	decrease of affinity relative to serotonin [1]: 300 fold
COC(=O)[C@@H]1[C@H]2C[C@H]3c4[nH]c5ccccc5c4CCN3C[C@@H]2CC[C@@H]1O [Yohimbine]	1270 ± 233	–	–
COc1cc(N)c(Cl)cc1C(=O)NC1CN2CCC1CC2 (centres unmarked) [Zacopride]	–	very poor affinity	–
